Results on one compound are retold here after patent US8729271B2, “Glycine transporter inhibiting substances” (Taisho Pharmaceutical Co., Ltd, priority 2010, dated 2014).

Data set [1] concerns the target T1, human type 1 glycine transporter (GlyT1) (Homo sapiens, UniProt P48067).
T1 construct: Used in the experiment were T98G cells (glioma cells) developing a human type 1 glycine transporter of (GlyT1); endogenous in cells; host or cells: T98G human glioma cells
T1 sequence (P48067 1-706): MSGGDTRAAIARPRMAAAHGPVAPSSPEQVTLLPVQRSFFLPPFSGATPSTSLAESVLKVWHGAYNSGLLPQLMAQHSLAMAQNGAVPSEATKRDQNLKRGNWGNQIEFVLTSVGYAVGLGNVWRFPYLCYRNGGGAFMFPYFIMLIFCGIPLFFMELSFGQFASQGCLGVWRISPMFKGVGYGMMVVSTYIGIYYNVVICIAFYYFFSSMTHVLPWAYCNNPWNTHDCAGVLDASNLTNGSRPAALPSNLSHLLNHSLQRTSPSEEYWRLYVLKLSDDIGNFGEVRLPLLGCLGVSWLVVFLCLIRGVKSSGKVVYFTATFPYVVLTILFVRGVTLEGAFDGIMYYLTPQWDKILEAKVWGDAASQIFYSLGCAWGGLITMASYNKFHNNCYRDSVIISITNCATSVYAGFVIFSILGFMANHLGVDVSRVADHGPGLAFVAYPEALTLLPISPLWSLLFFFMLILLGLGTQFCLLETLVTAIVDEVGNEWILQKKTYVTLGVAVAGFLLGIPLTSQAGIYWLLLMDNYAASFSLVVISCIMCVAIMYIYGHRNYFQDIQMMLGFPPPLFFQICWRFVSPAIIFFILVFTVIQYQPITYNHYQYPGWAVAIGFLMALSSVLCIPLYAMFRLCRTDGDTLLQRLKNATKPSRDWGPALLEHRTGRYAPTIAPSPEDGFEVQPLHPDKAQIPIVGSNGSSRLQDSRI
The data set can be described thus: Glycine uptake inhibition experiment ([3H]glycine uptake in T98G cells). It is filed as cell-based. Conditions: T98G glioma cells; [3H]glycine 250 nM; 10-min pretreatment; 15 min at room temperature; read-out: glycine uptake inhibiting activity (IC50). As for the experimental part:
A glycine uptake inhibition experiment was conducted in accordance with the method described in Neuron, 8, 927-935, 1992. Used in the experiment were T98G cells (glioma cells) developing a human type 1 glycine transporter of (GlyT1). The T98G cells were seeded in a 96-well plate at a density of 2.0×10^4 cells per well and cultured overnight in a CO2 incubator. The test substance was first dissolved in a 100% DMSO solution and then dissolved in a 10 mM HEPES buffer solution (pH 7.4) supplemented with 150 mM sodium chloride, 1 mM calcium chloride, 5 mM potassium chloride, 1 mM magnesium chloride, 10 mM glucose, and 0.2% bovine serum albumin. After removing the cell culture medium, the test substance was subjected to a 10-min pretreatment. Thereafter, the test substance and [^3H] glycine (final concentration: 250 nM) were added to the cells and reaction was performed at room temperature for 15 minutes. After the end of the reaction, the extracellular fluid was aspirated with a manifold to remove the excess marker glycine present outside of the cells; thereafter, the cells were lysed with an aqueous solution of 0.5 M sodium hydroxide. The glycine content in the cells was determined by measuring the radioactivity in the cell lysate with a liquid scintillation counter. With the amount of glycine uptake in the presence of 10 μM ALX5407 being referred to as the nonspecific uptake, the amount of specific uptake was calculated by subtracting the amount of nonspecific uptake from the total amount of uptake in the absence of 10 μM ALX5407. In addition, glycine uptake inhibiting activity (IC50) was calculated from an inhibition curve for the concentration of the test substance ranging from 10^−9 to 10^−5 M.
It should be noted that ALX5407 is a HCl salt of N-[(3R)-3-([1,1′-biphenyl]-4-yloxy)-3-(4-fluorophenyl)propyl]-N-methylglycine.
Incidentally, Compound 56 which is recited as 2HCl salt in the above Table 1-6 was subjected to measurement as its free form in the Glycine Uptake Inhibition Experiment.

The target in data set [2] is T2, P-glycoprotein (P-gp), Human MDR1 (Homo sapiens, UniProt P08183).
T2 construct: expressed in transfected cells; host or cells: LLC-GAS-COL 300 cells (derived from pig kidney LLC-PK1)
In words: Test for recognizability of P-gp substrate (LLC-GAS-COL 300 cells, Transwell). In kind it is in vitro ADME. Conditions: 10 μM; LLC-GAS-COL 300 cells (Human MDR1 in LLC-PK1); criteria of Nature Reviews Drug Discovery (2010) 9, 215-236. The text has this:
In order that drugs acting on the central nervous system will develop their efficacy, their passage from the blood to the brain is generally important. While various efflux transporters are present at the blood-brain barrier to control this passage of drugs, P-glylcoprotein (P-gp) is a typical example and inhibits the passage to the brain of any drugs that serve as the substrate for P-gp. Therefore, in the development of pharmaceuticals, nonrecognizability of a candidate drug as the substrate for P-gp is the key to its passage to the brain.
A test for recognizability of P-gp substrate was performed in accordance with a modified version of the methods described in J Pharmacol. Exp. Ther. (1992) Vol. 263, No. 2, 840-845 and J Biol. Chem. (1992) Vol. 267, No. 34, 24248-24252. To be more specific, LLC-GAS-COL 300 cells (Human MDR1 expressing system derived from pig kidney derived, cultured renal epithelial cell line LLC-PK1) were cultured for 4 days on a Transwell and replaced by a Hank's balanced salt solution (HBSS) in each well just before the test. A solution of an assay compound (a DMSO solution of the compound as diluted with HBSS and adjusted to a final concentration of 10 μM) was added to the donor side of the LLC-GAS-COL 300 cells and a prescribed amount of HBSS was collected from the acceptor side at given time intervals and the concentration of the assay compound in the collected sample was measured by LC-MS/MS.
From the cumulative amount of the compound's permeation into the acceptor, the membrane permeability coefficient (×10^−6 cm/sec) was calculated for each of apical→basal mode and basal→apical mode and the recognizability of P-gp substrate was assessed in terms of the ratio between the two modes (efflux ratio).

T2 sequence (P08183 whole entry): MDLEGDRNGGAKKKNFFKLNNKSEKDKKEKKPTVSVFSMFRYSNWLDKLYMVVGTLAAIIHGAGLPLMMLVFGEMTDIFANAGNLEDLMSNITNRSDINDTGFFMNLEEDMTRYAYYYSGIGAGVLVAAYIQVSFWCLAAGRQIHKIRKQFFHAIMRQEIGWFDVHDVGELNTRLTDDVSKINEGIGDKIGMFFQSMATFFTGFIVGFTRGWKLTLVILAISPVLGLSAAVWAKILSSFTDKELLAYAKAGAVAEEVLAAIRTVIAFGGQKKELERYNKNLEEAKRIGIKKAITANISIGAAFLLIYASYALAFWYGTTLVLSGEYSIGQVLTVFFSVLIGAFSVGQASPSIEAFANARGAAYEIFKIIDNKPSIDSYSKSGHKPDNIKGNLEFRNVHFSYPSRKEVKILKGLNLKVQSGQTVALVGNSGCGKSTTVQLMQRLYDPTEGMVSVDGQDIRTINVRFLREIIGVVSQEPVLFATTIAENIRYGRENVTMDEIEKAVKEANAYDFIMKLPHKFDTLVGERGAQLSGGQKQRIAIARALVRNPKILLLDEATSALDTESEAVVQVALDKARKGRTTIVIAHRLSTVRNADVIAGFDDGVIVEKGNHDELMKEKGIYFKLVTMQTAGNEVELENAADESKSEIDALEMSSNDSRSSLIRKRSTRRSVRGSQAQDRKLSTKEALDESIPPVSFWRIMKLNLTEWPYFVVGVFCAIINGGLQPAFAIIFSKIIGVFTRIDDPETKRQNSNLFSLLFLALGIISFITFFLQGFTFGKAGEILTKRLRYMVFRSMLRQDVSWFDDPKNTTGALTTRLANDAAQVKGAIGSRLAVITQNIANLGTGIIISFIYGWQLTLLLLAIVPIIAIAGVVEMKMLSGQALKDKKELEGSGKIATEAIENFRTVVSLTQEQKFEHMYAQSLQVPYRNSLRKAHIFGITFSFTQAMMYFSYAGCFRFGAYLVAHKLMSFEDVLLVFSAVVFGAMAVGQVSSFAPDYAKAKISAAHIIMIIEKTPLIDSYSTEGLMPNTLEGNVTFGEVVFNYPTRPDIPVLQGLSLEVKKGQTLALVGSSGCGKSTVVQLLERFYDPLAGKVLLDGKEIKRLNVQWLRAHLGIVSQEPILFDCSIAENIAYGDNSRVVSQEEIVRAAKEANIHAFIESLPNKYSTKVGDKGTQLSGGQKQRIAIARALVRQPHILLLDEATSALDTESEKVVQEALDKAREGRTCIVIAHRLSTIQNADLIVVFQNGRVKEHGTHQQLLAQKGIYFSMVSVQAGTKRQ

As to `CC(C)N(Cc1ccnc(-c2ccc(OC(F)(F)F)cc2)c1)C(=O)c1cn(C)cn1` [Compound 30], the IC50 in data set [1] is 7.3 nM. Further, the “recognizability as P-gp substrate (from efflux ratio basal→apical / apical→basal)” value in data set [2] is “not recognizable as the substrate for P-gp”.

One may read the IC50 as the concentration that inhibits the measured activity by half.
